These results are taken from PMC9091252 (Nature Communications, 2022).

One assay deals with SARS-CoV-2. The assay can be described thus: AFM inhibition assay: binding probability between SARS-CoV-2 virions and 9-AcSA coated surfaces before and after incubation with oligomers. As to conditions: for relative BP, Mean: mean of 3 tips, 0 uM = 1; for relative BP, single tip: normalized to 0 uM = 1.
In another assay the target is S1 domain of SARS-CoV-2 (Severe acute respiratory syndrome coronavirus 2, UniProt P0DTC2). Kind of assay: FD-based AFM binding probability of S1-functionalized tip on 9-AcSA, SA or streptavidin coated surfaces.
The target in a further assay is S1 subunit (Severe acute respiratory syndrome coronavirus 2, UniProt P0DTC2). The assay can be described thus: Dynamic force spectroscopy and kinetic on-rate analysis of the S1 – 9-AcSA bond. It counts as binding, SARS-CoV-2.

Values joined by “and” are separate entries in the source; they are usually repeats but may differ in a detail not shown here. Equal entries are not always repeated.

With `CC(=O)N[C@H]1[C@H]([C@H](O)[C@H](O)CO)O[C@@](OCc2cn(CCOc3cc4c(OCCn5cc(CO[C@]6(C(=O)O)C[C@H](O)[C@@H](NC(C)=O)[C@H]([C@H](O)[C@H](O)CO)O6)nn5)cc3Cc3cc(OCCn5cc(CO[C@]6(C(=O)O)C[C@H](O)[C@@H](NC(C)=O)[C@H]([C@H](O)[C@H](O)CO)O6)nn5)c(cc3OCCn3cc(CO[C@]5(C(=O)O)C[C@H](O)[C@@H](NC(C)=O)[C@H]([C@H](O)[C@H](O)CO)O5)nn3)Cc3cc(OCCn5cc(CO[C@]6(C(=O)O)C[C@H](O)[C@@H](NC(C)=O)[C@H]([C@H](O)[C@H](O)CO)O6)nn5)c(cc3OCCn3cc(CO[C@]5(C(=O)O)C[C@H](O)[C@@H](NC(C)=O)[C@H]([C@H](O)[C@H](O)CO)O5)nn3)Cc3cc(OCCn5cc(CO[C@]6(C(=O)O)C[C@H](O)[C@@H](NC(C)=O)[C@H]([C@H](O)[C@H](O)CO)O6)nn5)c(cc3OCCn3cc(CO[C@]5(C(=O)O)C[C@H](O)[C@@H](NC(C)=O)[C@H]([C@H](O)[C@H](O)CO)O5)nn3)Cc3cc(OCCn5cc(CO[C@]6(C(=O)O)C[C@H](O)[C@@H](NC(C)=O)[C@H]([C@H](O)[C@H](O)CO)O6)nn5)c(cc3OCCn3cc(CO[C@]5(C(=O)O)C[C@H](O)[C@@H](NC(C)=O)[C@H]([C@H](O)[C@H](O)CO)O5)nn3)C4)nn2)(C(=O)O)C[C@@H]1O` [compound 4], the “relative BP, Mean” value is recorded as 0.7825 in the assay with SARS-CoV-2 (1 uM), 0.836 with SARS-CoV-2 (10 uM) and 0.9261 with SARS-CoV-2 (100 uM). The “relative BP, single tip” value in the assay on SARS-CoV-2 (1 uM, listed as Pillar[5]arene NonAc) is 0.6071 and 0.8687 and 0.8718; in the assay with SARS-CoV-2 (10 uM, listed as Pillar[5]arene NonAc) it was 0.7738 and 0.9394 and 0.7949; in the assay with SARS-CoV-2 (100 uM, listed as Pillar[5]arene NonAc), 0.9286 and 0.9394 and 0.9103.

Usually koff stands for a measure of how fast the partners let go of each other. Read a high koff as a short-lived complex. A word on the Kd: it is the concentration at which binding is half-saturated. The IC50 is the concentration that inhibits the measured activity by half. With 9-O-acetylated sialic acid [9-AcSA], the “binding probability in competition assay with free 9-AcSA” value at S1 domain of SARS-CoV-2 (S1 tip on 9-AcSA surface, free 1 mM 9-AcSA) was “significantly lower BP”. Besides, the “difference in binding probability between acetylated and non-acetylated SA” value on S1 domain of SARS-CoV-2 (S1 tip, 9-AcSA versus SA coated surface) was ~ 3 fold. The koff at S1 subunit (Bell-Evans fit, single S1 – 9-AcSA bond) came to 0.24 ± 0.2 s⁻¹. Besides, the KD entry at S1 subunit (ratio between koff and kon) was “low micromolar range”. Moreover, at S1 subunit (ratio between koff and kon), the Kd was found to be 5.7 ± 5 µM. This compound also displayed an IC50 at SARS-CoV-2 of over 100 µM. Moreover, the “relative BP, Mean” value is on record as 0.8501 in the assay with SARS-CoV-2 (1 uM), 0.807 with SARS-CoV-2 (10 uM) and 0.638 in the assay with SARS-CoV-2 (100 uM). Moreover, the “relative BP, single tip” value was 0.7609 and 0.6994 and 1.09 in the assay on SARS-CoV-2 (1 uM); 0.7029 and 0.638 and 1.08 with SARS-CoV-2 (10 uM); 0.587 and 0.4969 and 0.83 in the assay with SARS-CoV-2 (100 uM). Moreover, the “reduction in the binding probability” value in the assay on SARS-CoV-2 (over the explored range 1, 10, 100 µM) was 20-30%.
